Measurements as given in patent US8541543B2, “Peptides specific for hepatocellular carcinoma cells and applications thereof” (Academia Sinica, priority 2007, dated 2013).

Key:
[1] = system: Mahlavu-derived HCC xenografts; assay: Immunohistochemical tissue distribution of targeting phages in tumor-bearing mice; format: in vivo, SCID mice; conditions: FIG. 3C, j
Procedure: (§1) SCID mice (4-6 weeks old) were injected subcutaneously (s.c.) into the dorsal-lateral flank with 5×10^6 Mahlavu cells. Mice bearing Mahlavu-derived xenografts (500 mm^3) were injected intravenously (i.v.) with 2×10^9 pfu of PC94 or control phage. After perfusion, the organs (brain, heart, and lungs) and tumor tissue were removed, washed with cold PBS and weighed. The phage bound to the tumor tissue and organs were rescued by Escherichia coli ER2738 culture. The eluted phage particles were titrated on LB/IPTG/X-Gal plates. In peptide competitive inhibition experiments, 2×10^9 pfu of PC94 phage was co-injected with 100 μg of SP94 peptide or the control peptide. The tissue distribution of targeting phages in the tumor-bearing mice was examined by immunohistochemical staining. The tissue sections were incubated with mouse anti-M13 antibody, followed by incubation with biotinylated horse anti-mouse antibody (ABC kit; Vector Laboratories, Burlingame, Calif., USA) and washed with PBS, then immersed with ABC reagent. The sections were immersed in DAB solution plus 0.01% hydrogen peroxide, washed with PBS and mounted with 50% glycerol in PBS.

advanced HCC = conditions: HCC (ref 36); cited from earlier work
[2] = system: Mahlavu-derived HCC xenografts; assay: In vivo peptide competitive inhibition of PC94 tumor binding; set-up: species or system SCID mice; conditions: 100 μg peptide co-injected with PC94, FIG. 3B
Procedure: as §1

Compound: SFSIIHTPILPL [SP94]
- immuno-reactivity of tumor tissue when PC94 co-injected with peptide [1]: no immuno-reactivity was found in the tumor tissue

Compound: COc1cccc2c1C(=O)c1c(O)c3c(c(O)c1C2=O)C[C@@](O)(C(=O)CO)C[C@@H]3O[C@H]1C[C@H](N)[C@H](O)[C@H](C)O1 [doxorubicin]
- overall response rate (advanced HCC): 18%

Compound: FPWFPLPSPYGN [control peptide]
- inhibition of PC94 binding to tumor tissue [2]: no such inhibitory effect
